Assay results: PubChem BioAssay AID1963826 (Molecular Pharmacology Branch, DTP, NCI, 2024)

Test system: 926638-142-R-J1-PDC complex spheroid viability
Assay: Anticancer human tumor 926638-142-R-J1-PDC patient-derived endometrial carcinoma cell line growth inhibition [POLQ]
Details: for IC50: curve of first compound; for viability, T/C: stronger effect = lower value
Method in brief: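 Growth inhibition in 3D: complex spheroids (tumor PDC, HUVEC, MSC) treated with POLQ inhibitor combinations; where Cmax unknown, highest tested concentration 10 microM, except SN-38 at 1 microM.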

[1] = second compound 0.0316 µM, first compound 0.0316 µM
[2] = second compound 0.0316 µM, first compound 0.1 µM
[3] = second compound 0.0316 µM, first compound 0.316 µM
[4] = second compound 0.0316 µM, first compound 1 µM
[5] = second compound 0.0316 µM, first compound 3.16 µM
[6] = second compound 0.0316 µM, first compound 10 µM
[7] = second compound 0.1 µM, first compound 0.0316 µM
[8] = second compound 0.1 µM, first compound 0.1 µM
[9] = second compound 0.1 µM, first compound 0.316 µM
[10] = second compound 0.1 µM, first compound 1 µM
[11] = second compound 0.1 µM, first compound 3.16 µM
[12] = second compound 0.1 µM, first compound 10 µM
[13] = second compound 0.316 µM, first compound 0.0316 µM
[14] = second compound 0.316 µM, first compound 0.1 µM
[15] = second compound 0.316 µM, first compound 0.316 µM
[16] = second compound 0.316 µM, first compound 1 µM
[17] = second compound 0.316 µM, first compound 3.16 µM
[18] = second compound 0.316 µM, first compound 10 µM
[19] = second compound 1 µM, first compound 0.0316 µM
[20] = second compound 1 µM, first compound 0.1 µM
[21] = second compound 1 µM, first compound 0.316 µM
[22] = second compound 1 µM, first compound 1 µM
[23] = second compound 1 µM, first compound 3.16 µM
[24] = second compound 1 µM, first compound 10 µM
[25] = second compound 3.16 µM, first compound 0.0316 µM
[26] = second compound 3.16 µM, first compound 0.1 µM
[27] = second compound 3.16 µM, first compound 0.316 µM
[28] = second compound 3.16 µM, first compound 1 µM
[29] = second compound 3.16 µM, first compound 3.16 µM
[30] = second compound 3.16 µM, first compound 10 µM
[31] = second compound 10 µM, first compound 0.0316 µM
[32] = second compound 10 µM, first compound 0.1 µM
[33] = second compound 10 µM, first compound 0.316 µM
[34] = second compound 10 µM, first compound 1 µM
[35] = second compound 10 µM, first compound 3.16 µM
[36] = second compound 10 µM, first compound 10 µM
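Note: spheroids exposed to drugs for one week before readout.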
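Throughout, for viability, T/C: percent viability relative to DMSO vehicle control wells set as 100%.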

COc1cc(C2c3cc4c(cc3C(OC3OC5COC(C)OC5C(O)C3O)C3COC(=O)C23)OCO4)cc(OC)c1O (stereo unspecified) + Nc1ccc(C#CCN(C(=O)Cc2ncc(C(F)(F)F)cc2C(F)(F)F)c2ccc(F)cc2)nn1
IC50 (second compound 0.0316 µM): > 10 µM | IC50 (second compound 0.1 µM): > 10 µM | IC50 (second compound 0.316 µM): > 10 µM | IC50 (second compound 1 µM): > 10 µM | IC50 (second compound 3.16 µM): > 10 µM | IC50 (second compound 10 µM): > 10 µM | viability, T/C [1]: 99.2% | viability, T/C [2]: 81.6% | viability, T/C [3]: 80.3% | viability, T/C [4]: 73.1% | viability, T/C [5]: 77.8% | viability, T/C [6]: 58.1% | viability, T/C [7]: 96.6% | viability, T/C [8]: 101% | viability, T/C [9]: 70.3% | viability, T/C [10]: 67.4% | viability, T/C [11]: 80% | viability, T/C [12]: 53.5% | viability, T/C [13]: 106% | viability, T/C [14]: 77.7% | viability, T/C [15]: 71.7% | viability, T/C [16]: 69.4% | viability, T/C [17]: 69.7% | viability, T/C [18]: 54% | viability, T/C [19]: 102% | viability, T/C [20]: 83.1% | viability, T/C [21]: 80.4% | viability, T/C [22]: 74.4% | viability, T/C [23]: 69.3% | viability, T/C [24]: 57% | viability, T/C [25]: 83.3% | viability, T/C [26]: 87.2% | viability, T/C [27]: 71.2% | viability, T/C [28]: 63.3% | viability, T/C [29]: 76.1% | viability, T/C [30]: 51% | viability, T/C [31]: 94.9% | viability, T/C [32]: 82.6% | viability, T/C [33]: 73.3% | viability, T/C [34]: 63% | viability, T/C [35]: 69% | viability, T/C [36]: 53.4%

Nc1ccn(C2OC(CO)C(O)C2(F)F)c(=O)n1 (stereo unspecified) + Nc1ccc(C#CCN(C(=O)Cc2ncc(C(F)(F)F)cc2C(F)(F)F)c2ccc(F)cc2)nn1
IC50 (second compound 0.0316 µM): 1.06 µM | IC50 (second compound 0.1 µM): 0.682 µM | IC50 (second compound 0.316 µM): 0.948 µM | IC50 (second compound 1 µM): 0.701 µM | IC50 (second compound 3.16 µM): 0.449 µM | IC50 (second compound 10 µM): 2.4 µM | viability, T/C [1]: 76.5% | viability, T/C [2]: 63.9% | viability, T/C [3]: 57% | viability, T/C [4]: 52.7% | viability, T/C [5]: 43.9% | viability, T/C [6]: 29.6% | viability, T/C [7]: 96.8% | viability, T/C [8]: 82.5% | viability, T/C [9]: 49.4% | viability, T/C [10]: 44.6% | viability, T/C [11]: 49.9% | viability, T/C [12]: 25.6% | viability, T/C [13]: 91.2% | viability, T/C [14]: 72% | viability, T/C [15]: 61.8% | viability, T/C [16]: 49.2% | viability, T/C [17]: 40.8% | viability, T/C [18]: 27% | viability, T/C [19]: 81.8% | viability, T/C [20]: 65.7% | viability, T/C [21]: 51.1% | viability, T/C [22]: 47.5% | viability, T/C [23]: 49.6% | viability, T/C [24]: 28.9% | viability, T/C [25]: 80% | viability, T/C [26]: 67.5% | viability, T/C [27]: 49.9% | viability, T/C [28]: 42.9% | viability, T/C [29]: 44.6% | viability, T/C [30]: 33.3% | viability, T/C [31]: 79.6% | viability, T/C [32]: 73.1% | viability, T/C [33]: 66.3% | viability, T/C [34]: 48% | viability, T/C [35]: 55.4% | viability, T/C [36]: 38.9%

O=c1[nH]cc(F)c(=O)[nH]1 + Nc1ccc(C#CCN(C(=O)Cc2ncc(C(F)(F)F)cc2C(F)(F)F)c2ccc(F)cc2)nn1
IC50 (second compound 0.0316 µM): > 10 µM | IC50 (second compound 0.1 µM): > 10 µM | IC50 (second compound 0.316 µM): > 10 µM | IC50 (second compound 1 µM): > 10 µM | IC50 (second compound 3.16 µM): > 10 µM | IC50 (second compound 10 µM): > 10 µM | viability, T/C [1]: 101% | viability, T/C [2]: 107% | viability, T/C [3]: 92.8% | viability, T/C [4]: 82.9% | viability, T/C [5]: 86.5% | viability, T/C [6]: 80.7% | viability, T/C [7]: 100% | viability, T/C [8]: 116% | viability, T/C [9]: 107% | viability, T/C [10]: 83.4% | viability, T/C [11]: 90.8% | viability, T/C [12]: 78.8% | viability, T/C [13]: 85.5% | viability, T/C [14]: 98.1% | viability, T/C [15]: 102% | viability, T/C [16]: 97.8% | viability, T/C [17]: 85.5% | viability, T/C [18]: 83% | viability, T/C [19]: 103% | viability, T/C [20]: 85% | viability, T/C [21]: 99.4% | viability, T/C [22]: 75.9% | viability, T/C [23]: 77.7% | viability, T/C [24]: 76.8% | viability, T/C [25]: 97.7% | viability, T/C [26]: 93.5% | viability, T/C [27]: 88.1% | viability, T/C [28]: 92.5% | viability, T/C [29]: 82.1% | viability, T/C [30]: 70.2% | viability, T/C [31]: 102% | viability, T/C [32]: 81% | viability, T/C [33]: 93.2% | viability, T/C [34]: 85.7% | viability, T/C [35]: 78.2% | viability, T/C [36]: 74.3%
